Reference: patent US11952365B2, “Anti-viral compounds” (Aligos Therapeutics, Inc., priority 2020, dated 2024)

Legend:
[1] = system: SARS-CoV-2; conditions: cited from earlier work
[2] = target: T1, 3CLpro (Severe acute respiratory syndrome coronavirus 2, UniProt P0DTD1); conditions: cited from earlier work
[3] = system: human beta-coronavirus OC43; assay: microbe, parasite or virus in culture; format: cell-based; conditions: OC43 in HeLa cells, 6 days at 33° C., class symbols; read-out: EC50
[4] = system: HeLa cells; assay: Cytotoxicity plates without OC43 virus (cell-titer-glo); format: cell-based, human; conditions: class symbols
Procedure, shortened: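 Run as a virus-free counterpart of the OC43 cytopathic-effect assay. Attached HeLa cells received compound dilutions in EMEM with 2% FBS and were kept 6 days at 33 °C. Cell viability was then measured by CellTiter-Glo luminescence.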

[5] = system: SARS-CoV-2-GHB-03021/2020; assay: SARS-CoV-2 Infection Model in Huh7 Cells; format: cell-based; conditions: SARS-CoV-2, day 4 p.i., MTS, class symbols, read-out: Huh-7 (EC50)
[6] = target: T2, human cathepsin L (Homo sapiens, UniProt P07711); assay: cathepsin L assay; format: biochemical; conditions: 10 pM human cathepsin L, Z-FR-AMC 2 μM, class symbols
T2 construct: purchased R&D Systems
Procedure, shortened: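 Reactions began by adding 2 μM (final) Z-FR-AMC substrate to 10 pM human cathepsin L that had been preincubated 30 min with inhibitor. Kinetic AMC fluorescence at 355/460 nm over 30 min at 2-min intervals; four-parameter fitting gave IC50 values.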

[7] = system: Huh7 cells; conditions: read-out: Huh-7 (CC50), MTS, numeric bounds
[8] = system: Vero E6-eGFP cells; conditions: read-out: VeroE6 + CP (CC50); Vero E6-eGFP cells with CP-100356, absence of virus, MTS; numeric bounds
[9] = target: T1, 3CLpro; assay: SARS-CoV-2 3CLpro protease assay (duplex, SAMDI-MS); format: biochemical; set-up: For the duplex assay, 3CLpro and HRV3C was added; conditions: 3CLpro, 30 mins preincubation, class symbols; read-out: SARS-Cov-2 IC50

T2 sequence (P07711 114-333): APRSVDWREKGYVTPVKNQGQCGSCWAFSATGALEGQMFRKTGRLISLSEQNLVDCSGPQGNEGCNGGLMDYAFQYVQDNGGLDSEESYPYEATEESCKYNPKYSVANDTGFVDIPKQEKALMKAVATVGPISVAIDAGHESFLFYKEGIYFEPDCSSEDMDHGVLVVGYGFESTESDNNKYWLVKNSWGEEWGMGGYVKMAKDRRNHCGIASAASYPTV

Row | Compound | inhibition of SARS-CoV-2 ([1]; in VeroE6, A549-ACE2 and/or HeLa-ACE2) | antiviral effect ([1]; when TMPRSS2 was expressed in A549-ACE2) | inhibitory effect on the 3CLpro [2] | EC50 [3] | CC50 [4] | EC50 [5] | IC50 [6] | CC50 [7] | CC50 [8] | IC50 [9]
1 | CN1CCN(C(=O)N[C@@H](Cc2ccccc2)C(=O)N[C@H](/C=C/S(=O)(=O)c2ccccc2)CCc2ccccc2)CC1 [Compound K117777] | potent inhibition | abolished | lacks an inhibitory effect |  |  |  |  |  |  | 
2 | O=C1NCC[C@H]1C[C@H](NC(=O)[C@@H]1[C@H]2CCC[C@H]2CN1C(=O)c1cc2c([nH]1)C1CCC2C1)C(=O)CO (stereo partly drawn) [Compound 157, (1S,3aR,6aS)-2-{3-azatricyclo[5.2.1.0^{2,6}]deca-2(6),4-diene-4-carbonyl}-N-[(2S)-4-hydroxy-3-oxo-1-[(3S)-2-oxopyrrolidin-3-yl]butan-2-yl]-hexahydro-1H-cyclopenta[c]pyrrole-1-carboxamide] |  |  |  | 0.1 to 1 µM | > 10 µM | 1 to 10 µM | ≥ 10 µM | > 50 µM | > 50 µM | 0.02 to 0.2 µM
